For test [1], the system named is experimental animal trachea. Put plainly: Relaxation of trachea pre-contracted by anaphylactic stimulation (ovoalbumin). The following applies: pre-contracted with ovoalbumin (20 μg/ml), average±SEM, at least 3 animals; read-out: IC50, concentration necessary to relax in 50% the anaphylatic spasm of trachea. The protocol:
Female and male experimental animals were used, weighing between 300 and 400 g, they came from Oswaldo Cruz Foundation's Center of Laboratory Animal Raising. The procedures involving the animals were examined and approved by Oswaldo Cruz Foundation's Committee of Animal Ethics (CEUA-FIOCRUZ, License number 00085-02). The animals were sensitized through a subcutaneous injection with a mixture of 50 μg ovoalbumin and 5 mg Al(OH)3. Fourteen to thirty days after the sensitization, the experimental animal was sacrificed in a chamber of carbonic gas to have its trachea removed. The trachea was transferred to a Petri dish containing Krebs solution (composition in mM) (NaCl-119; […] NaHCO3-25; […] The total segment was divided into fragments of about 3 to 4 rings that were sectioned at the extreme ending, the muscular part of the trachea. Each fragment had one of its ends tied to a rod while the other end was connected to an isometric transductor (U Basile, Italy) after the transference from the rod to a 10 ml glass cuvette. […] The contractions were registered with the […] of a computerized system of data capture (Letica, Spain). […] The results were shown as a percentage of relaxation in relation to the plateau of the anaphylatic pre-contraction. Concentration-response data were adjusted through non-linear regression curves with the […] of a graphics software (GraphPad Prism, USA). […] The values were expressed as an average± standard error of the mean and statistically analysed through the test of analysis variance (ANOVA), followed by the Newman-Keuls-Student test.

The test system of test [2] is isolated ileum of an experimental animal. The test is described as follows: Anaphylactic contraction of isolated ileum induced by antigen (ovoalbumin). To be noted: antigen (10 μg/ml), average ±SEM, at least 3 animals; read-out: Stimulation with antigen IC50. The protocol:
(§1) Female and male experimental animals were used, weighing between 300 and 400 g, they came from Oswaldo Cruz Foundation's Center of Laboratory Animal Raising. The procedures involving the animals were examined and approved by Oswaldo Cruz Foundation's Committee of Animal Ethics (CEUA-FIOCRUZ, Licenca no. 00085-02). The animals were sensitized through a subcutanous injection with a mixture of 50 μg ovoalbumin and 5 mg Al(OH)3. From fourteen to thirty days after the sensitization, the experimental, animal was sacrificed in a chamber of carbonic gas to have its abdomen open and the location of the ileocecal valve. At this point, the intestine was sectioned and a segment of the small intestine, about 20 cm (equivalent to the ileum) was carefully removed and internally washed with a warmed solution (37° C.) of Tyrode (Composition in mM) (NaCl 137; KCl 2.7; NaH2PO4 0.42; NaHCO3 11.9; MgCl2 0.5; CaCl2 1.8; glucose 5.6) to remove the fecal content. […].
(§2) About 3-cm ileum fragments were vertically mounted in 10 ml glass cuvettes, immersed in Tyrode's solution at 37° C., aerated with carbogen (O2, 95% and CO2, 5%) and supplemented with atropine according to the standard procedure. The tissue had one of its ends tied to a rod while the other end was coupled with a transductor after the transference from the rod to the cuvette. The contractions were isotonically registered (basal tension of 1 g) with the support of a transductor of displacement-force connected to a computerized system to capture data. After a 30 minute period of balance, each segment was repeatedly stimulated by histamine (1 μM) until response stabilization. To induce anaphylatic contraction, ileum segments from sensitized experimental animals were stimulated by ovoalbumin (10 μg/ml). […]. The results were presented as a percentage of inhibition calculated in relation to the contractive effect obtained from stimulated and non-treated preparations.
(§3) Concentration-response data were adjusted through non-linear regression curves with the assistence of a graphics software (GraphPad Prism, USA). The concentration of an antagonist needed to inhibit the contractive response to inhibit the contractive response after stimulation by histamine or antigen at 50% (IC50) was used to compare the anti-spasmodic potency. The values expressed as an average ± standard error of the mean and statistically analysed through the test of analysis variance (ANOVA), followed by the Newman-Keuls-Student test.

For test [3], the system named is cutaneous sites of the dorsal region of adult Wistar rats. Put plainly: Local anesthetic activity, intradermal injection in dorsal skin, response to mechanical stimulation. It counts as in vivo. To be noted: for time of anesthesia compared with lidocaine: doses from 0.5 to 4 μMol/site. The protocol:
Female and male Wistar rats, weighing between 200 and 250 g, they came from Oswaldo Cruz Foundation's Center of Laboratory Animal Raising were used. The procedures involving the animals were examined and approved by Oswaldo Cruz Foundation's Committee of Animal Ethics (CEUA-FIOCRUZ, License number 00085-02). After brief anesthesia by exposure to the atmosphere enriched with […] animals were trichotomized dorsal region, where the […] injections with substances for test were performed; doses varied from 0.5 to 4 μMol/site, and vehicule (NaCl 0.9%) (negative control), the final volume was 50 μl. Each animal took six injections and four animals were used for each tested substance. The application points were mechanically estimulated with a tweezer in order to evaluate the integrity of sensitiveness. The site was considered not to be anesthesized whenever after the mechanical stimulation it was observed a local retraction of the skin, according to what had been previously reported. The evaluations began 10 minutes after intradermal injections had been taken, which continued every five minutes until it was obtained the cutaneous retraction response. The values (average±standard error of the mean, SEM) were expressed in terms of “Time of Anesthesia” in minutes.

Test [4] deals with isolated ileum of an experimental animal. Put plainly: Contraction of isolated ileum induced by histamine. The following applies: histamine (5 μM), average ±SEM, at least 3 animals; read-out: Stimulation with histamine IC50. The protocol: as §1, §2, §3
Test [5] concerns sensitized experimental animals. The test is described as follows: Pulmonary eosinophil infiltrate after ovoalbumin aerosol challenge, bronchoalveolar lavage count. In kind it is in vivo. The following applies: 5% aerosol, 30 min, with ovoalbumin 1% plus 3 aerosolizations every 3 h; lavage 24 h after challenge.
Procedure: The animals were sensitized through a cutaneous injection of a mixture with 50 μg ovoalbumin and 5 mg Al(OH)3, and challenged with ovoalbumin (1%) aerosol for 30 min 14 days afterwards, according to what was previously described. In order to avoid death of animals by anaphylatic asphyxia, all of them were treated intraperitonially with the anti-histaminic difenidramine (30 mg/kg) 30 minutes before being challenged.
Bronchoalveolar Lavage and Eosinophils Counting
All the animals were anesthesized terminally through an intraperitonial injection of pentobarbital (200 mg/kg) 24 h after the antigenic challenge, to wash the bronchoalveolar space according to the techniques previously described. Total leukocyte count were done after dilution of bronchoalveolar lavage samples in Turk liquid and counting in the Neubauer chamber with the assistance of direct-light microscopy. The differential eosinophil count was done also under direct-light microscopy, after centrifugation of samples of the lavage as well as its exposure to specific dyestuff (May-Grunwald-Giemsa dye).
The averages± standard error of the mean of the groups investigated were analyzed based on statistics through the test of variance analysis (ANOVA), followed by the Newman-Keuls-Student test.
Values, expressed in terms of “number of eosinophils×10^6/lavage” are presented as average±SEM in at least 7 animals. In the negative control group, animals previously sensitized were artificially-challenged through exposure to sterile saline (NaCl, 0.9%) aerosol. […] “*” represents the difference statistically significant (P<0.05), when the group treated and the positive control group were compared.

As to `CCN(CC)CC(=O)Nc1cccc(C)c1C` [JM23-1, 2-dyethylamine-2′,3′-acetoxylidide], the IC50 amounted to 220 ± 60 µM in test [1], 330 µM in test [2] and 380 ± 60 µM in test [4]. The “time of anesthesia compared with lidocaine” value in test [3] is on record as “significantly inferior”.
For the compound `CCN(CC)CC(=O)Nc1ccc(C)cc1C` [JM24-1, 2-dyethylamine-2′,4′-acetoxylidide], the “blocking the accumulation of eosinophils in the bronchoalveolar area” value in test [5] was “equipotent to lidocaine”. In addition, the IC50 worked out at 30 µM in test [1], 190 ± 40 µM in test [2] and 310 ± 60 µM in test [4]. In addition, the “time of anesthesia compared with lidocaine” value in test [3] is on record as “significantly inferior”.
With `CCN(CC)CC(=O)Nc1c(C)cccc1C` [Lidocaine, 1-(2-(dyethylamine)N-dymethylfenyl)-acetamide, reference compound], the “blocking the accumulation of eosinophils in the bronchoalveolar area” value in test [5] is on record as “clearly sensitive to lidocaine treatment”. Also, the values for the IC50 in test [1], in test [2] and in test [4] were 1350 ± 20 µM, 1430 ± 90 µM and 1410 ± 120 µM, respectively. In addition, the “Time of Anesthesia” value in test [3] (4 μMol/site intradermal, n=4, average±SEM) was determined as 168 ± 3 min.

The record behind these values is patent US8163803B2 (Fundação Oswaldo Cruz—FIOCRUZ, priority 2004, dated 2012).
